Experimental data published in PubChem BioAssay AID248 (DTP/NCI, 2004).
“And” between values parts separate entries of the source, which are not always exact repeats. Equal entries are not always repeated. Toxic doses and inconclusive results are not listed.

Tested on: L1210 leukemia ip in BDF1 mice, survival T/C
Assay: NCI In Vivo Anticancer Drug Screen. Data for tumor model L1210 Leukemia (intraperitoneal) in B6D2F1 (BDF1) mice
Conditions: higher = longer survival
Procedure, shortened: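 Value reflects the ratio of survival in compound-treated mice to survival in vehicle-treated controls, with both groups carrying the same transplanted tumor.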

[1] = endpoint: mean survival time, dose: 100.0 mg/kg/injection, schedule: Q01DX009 (ip), vehicle: saline

In the case of `N=c1ccn2c(n1)OC1C(OP(=O)(O)O)C(CO)OC12` (stereo unspecified), the T/C (endpoint: mean survival time, dose: 5.0 mg/kg/injection, schedule: Q01DX009 (ip), vehicle: saline) is reported as 115 % of control, the T/C (endpoint: mean survival time, dose: 25.0 mg/kg/injection, schedule: Q01DX009 (oral), vehicle: saline) is reported as 172 % of control and the T/C (endpoint: mean survival time, dose: 40.0 mg/kg/injection, schedule: Q01DX009 (ip), vehicle: saline) is reported as 152 % of control. For the same molecule, the T/C (endpoint: mean survival time, dose: 50.0 mg/kg/injection, schedule: Q01DX009 (oral), vehicle: saline) was 167 % of control, the T/C (endpoint: mean survival time, dose: 80.0 mg/kg/injection, schedule: Q01DX009 (ip), vehicle: saline) was 175 % of control and the T/C (endpoint: mean survival time, dose: 100.0 mg/kg/injection, schedule: Q01DX005 (ip), vehicle: saline) was 152 % of control and 160 % of control. The T/C [1] was 184 % of control and 185 % of control, the T/C (endpoint: mean survival time, dose: 100.0 mg/kg/injection, schedule: Q01DX009 (oral), vehicle: saline) was 190 % of control and the T/C (endpoint: mean survival time, dose: 160.0 mg/kg/injection, schedule: Q01DX009 (ip), vehicle: saline) was 164 % of control. The T/C (endpoint: mean survival time, dose: 200.0 mg/kg/injection, schedule: Q01DX005 (ip), vehicle: saline) was 168 % of control and 178 % of control, the T/C (endpoint: mean survival time, dose: 200.0 mg/kg/injection, schedule: Q01DX009 (ip), vehicle: saline) was 163 % of control and 195 % of control and the T/C (endpoint: mean survival time, dose: 200.0 mg/kg/injection, schedule: Q01DX009 (oral), vehicle: saline) was 201 % of control. The T/C (endpoint: mean survival time, dose: 400.0 mg/kg/injection, schedule: Q01DX009 (ip), vehicle: saline) was 192 % of control and 212 % of control, the T/C (endpoint: mean survival time, dose: 400.0 mg/kg/injection, schedule: Q01DX009 (oral), vehicle: saline) was 245 % of control and the T/C (endpoint: mean survival time, dose: 800.0 mg/kg/injection, schedule: Q01DX009 (oral), vehicle: saline) was 260 % of control. For the same molecule, the T/C (endpoint: median survival time, dose: 12.5 mg/kg/injection, schedule: Q01DX009 (oral), vehicle: saline) was 109 % of control, the T/C (endpoint: median survival time, dose: 12.5 mg/kg/injection, schedule: Q03HX008 (oral), vehicle: water) was 111 % of control and the T/C (endpoint: median survival time, dose: 25.0 mg/kg/injection, schedule: Q01DX009 (oral), vehicle: saline) was 109 % of control. For the same molecule, the T/C (endpoint: median survival time, dose: 25.0 mg/kg/injection, schedule: Q03HX008 (oral), vehicle: water) was 111 % of control, the T/C (endpoint: median survival time, dose: 25.0 mg/kg/injection, schedule: Q03HX024 (oral), vehicle: water) was 172 % of control and the T/C (endpoint: median survival time, dose: 50.0 mg/kg/injection, schedule: Q01DX009 (oral), vehicle: saline) was 109 % of control. For the same molecule, the T/C (endpoint: median survival time, dose: 50.0 mg/kg/injection, schedule: Q01DX009 (oral), vehicle: water) was 150 % of control, the T/C (endpoint: median survival time, dose: 50.0 mg/kg/injection, schedule: Q03HX024 (oral), vehicle: water) was 188 % of control and the T/C (endpoint: median survival time, dose: 100.0 mg/kg/injection, schedule: Q01DX009 (oral), vehicle: water) was 166 % of control. For the same molecule, the T/C (endpoint: median survival time, dose: 100.0 mg/kg/injection, schedule: Q03HX024 (oral), vehicle: water) was 194 % of control, the T/C (endpoint: median survival time, dose: 200.0 mg/kg/injection, schedule: Q01DX001 (oral), vehicle: saline) was 100 % of control and the T/C (endpoint: median survival time, dose: 200.0 mg/kg/injection, schedule: Q01DX001 (oral), vehicle: water) was 116 % of control. For the same molecule, the T/C (endpoint: median survival time, dose: 200.0 mg/kg/injection, schedule: Q01DX009 (oral), vehicle: water) was 188 % of control, the T/C (endpoint: median survival time, dose: 200.0 mg/kg/injection, schedule: Q03HX008 (oral), vehicle: water) was 161 % of control and the T/C (endpoint: median survival time, dose: 200.0 mg/kg/injection, schedule: Q03HX024 (oral), vehicle: water) was 200 % of control. For the same molecule, the T/C (endpoint: median survival time, dose: 400.0 mg/kg/injection, schedule: Q01DX001 (oral), vehicle: saline) was 90 % of control, the T/C (endpoint: median survival time, dose: 400.0 mg/kg/injection, schedule: Q01DX001 (oral), vehicle: water) was 122 % of control and the T/C (endpoint: median survival time, dose: 400.0 mg/kg/injection, schedule: Q01DX009 (oral), vehicle: saline) was 177 % of control. For the same molecule, the T/C (endpoint: median survival time, dose: 400.0 mg/kg/injection, schedule: Q01DX009 (oral), vehicle: water) was 211 % of control, the T/C (endpoint: median survival time, dose: 400.0 mg/kg/injection, schedule: Q03HX008 (oral), vehicle: water) was 111 % of control and the T/C (endpoint: median survival time, dose: 400.0 mg/kg/injection, schedule: Q03HX024 (oral), vehicle: water) was 94 % of control. For the same molecule, the T/C (endpoint: median survival time, dose: 400.0 mg/kg/injection, schedule: Q04DX003 (oral), vehicle: water) was 155 % of control, the T/C (endpoint: median survival time, dose: 800.0 mg/kg/injection, schedule: Q01DX009 (oral), vehicle: saline) was 200 % of control and the T/C (endpoint: median survival time, dose: 800.0 mg/kg/injection, schedule: Q04DX003 (oral), vehicle: water) was 177 % of control. For the same molecule, the T/C (endpoint: median survival time, dose: 1600.0 mg/kg/injection, schedule: Q01DX001 (oral), vehicle: saline) was 154 % of control, the T/C (endpoint: median survival time, dose: 1600.0 mg/kg/injection, schedule: Q04DX003 (oral), vehicle: water) was 188 % of control and the T/C (endpoint: median survival time, dose: 3200.0 mg/kg/injection, schedule: Q01DX001 (oral), vehicle: saline) was 168 % of control. For the same molecule, the T/C (endpoint: median survival time, dose: 3200.0 mg/kg/injection, schedule: Q04DX003 (oral), vehicle: water) was 166 % of control.

`CC(N)c1ccccc1Cl` (stereo unspecified) was tested, and the T/C (endpoint: mean survival time, dose: 12.5 mg/kg/injection, schedule: Q04DX003 (ip), vehicle: saline) was 107 % of control, the T/C (endpoint: mean survival time, dose: 25.0 mg/kg/injection, schedule: Q04DX003 (ip), vehicle: saline) was 96 % of control and the T/C (endpoint: mean survival time, dose: 50.0 mg/kg/injection, schedule: Q04DX003 (ip), vehicle: saline) was 96 % of control.

In the case of `O=C(NCCCl)Sc1ccc(Cl)cc1`, the T/C (endpoint: mean survival time, dose: 20.0 mg/kg/injection, schedule: Q04DX003 (ip), vehicle: Klucel (hydroxypropylcellulose) (HPC)) is reported as 92 % of control, the T/C (endpoint: mean survival time, dose: 40.0 mg/kg/injection, schedule: Q04DX003 (ip), vehicle: Klucel (hydroxypropylcellulose) (HPC)) is reported as 90 % of control and the T/C (endpoint: mean survival time, dose: 80.0 mg/kg/injection, schedule: Q04DX003 (ip), vehicle: Klucel (hydroxypropylcellulose) (HPC)) is reported as 93 % of control.

`NCCO[Si](OCCN)(OCCN)OCCN` was tested, and the T/C (endpoint: mean survival time, dose: 50.0 mg/kg/injection, schedule: Q01DX009 (ip), vehicle: saline) was 93 % of control and the T/C [1] was 88 % of control.
